Assay results taken from patent publication US20230102309A1, “TYROSINE KINASE INHIBITOR CONJUGATES” (Ascendis Pharma Oncology Division A/S, priority 2019, published 2023).
Marks after values point to notes of the source that are not given here.

What was measured:
MC-38 tumor cells = test: In vivo anti-tumor efficacy and combination efficacy with anti-PD1, bilateral MC-38 tumors; parameters: species or system C57BL/6 mice; settings: Axitinib 25 mg/kg oral twice daily, antibodies 10 mg/kg IP; for Absolute tumor volume of left flank tumors, mean: left (not injected) tumor, hydrogels 50 μL IT into right tumor once Day 0 (7a 378, 8a 136, 8b 47 μg eq. axitinib); for Absolute tumor volume of right flank tumors, mean: right (IT-treated) tumor, hydrogels 50 μL IT once Day 0 (7a 378, 8a 136, 8b 47 μg eq. axitinib)
Experimental: The study was conducted in female C57BL/6 mice with an age of 6-8 weeks at the day of tumor inoculation. Mice were implanted with 1×10^6 MC-38 tumor cells into the left and right flanks. When right flank tumors were grown to a mean tumor volume of ˜104 mm^3, mice were randomized into treatment cohorts. For animals that received intratumoral injections, the right tumor was selected for treatment.
(§1) Following treatment initiation, anti-tumor efficacy was assessed by determination of tumor volumes at various time points from tumor size measurements with a caliper. Tumor volumes were calculated according to the formula: […]
(§2) where L is the length of the tumor and W the width (both in mm).

MC-38/C11G tumor cells = test: Anti-tumor efficacy within the in vivo PK study; parameters: species or system C57BL/6 mice; settings: Axitinib 3 mg/kg oral twice a day for 14 days, 9c single IT 50 μL
Experimental: (§3) The study was conducted in female C57BL/6 mice with an age of 6-8 weeks at the day of tumor inoculation. Mice were implanted with 1×10^6 of MC-38/C11G tumor cells into the right flank.
(§4) When tumors were grown to a mean tumor volume of ˜94 mm^3, mice were randomized into treatment cohorts (day 0). Following randomization, animals received either a single intratumoral injection of hydrogel 1 or hydrogel 9c as a single intratumoral dose in an injection volume of 50 μL, or with orally administered Axitinib suspended in 0.5% carboxymethylcellulose at 3 mg/kg in a 100 μl dose volume twice a day for 14 days. Hydrogels were administered as suspensions in pH 5.5 20 mM sodium succinate, 77 g/l trehalose dihydrate, 0.2% Pluronic F-68 buffer.
as §1, §2

[1] = Axitinib concentration in plasma samples; assay type: in vivo, C57BL/6 mice; settings: female, C57BL/6, mouse, 9c single IT 50 μL (n=4), Axitinib 3 mg/kg oral (n=3), LLOQ 50.0 pg/mL
Experimental: as §3, §4
After 0.5, 1, 4 12, and 24 hours following treatment, 4 mice from the hydrogel 9c and Axitinib treated groups were sacrificed and terminal blood was collected in EDTA. Plasma was prepared after blood withdrawal. After 72 hours following treatment, 4 mice from the hydrogel 9c treated group were sacrificed and tumors were excised and snap frozen. Plasma samples underwent further processing by solid-phase extraction prior to Axitinib concentration determination by LCMS/MS.
All solvents (UPLC grade) as well as formic acid (ULC/MS quality) were purchased from Biosolve BV, Valkenswaard, The Netherlands. Axitinib concentrations in plasma were determined after solid phase extraction via liquid chromatography separation and detection by mass spectrometry (LCMS). As internal standard [^13C, D3]-axitinib was used. LCMS analysis was carried out by using an Agilent Infinity ultra high performance liquid chromatography (UHPLC) system coupled to an AbSciex 6500+ QTrap triple quadrupole mass spectrometer (QQQ) via an ESI probe. Chromatography was performed on a C18 analytical UHPLC column (YMC-Triart, 2.1×50 mm, 1.9 μm particle). Water containing 0.1% formic acid (v/v) was used as mobile phase A and acetonitrile with 0.1% formic acid as mobile phase B. The gradient system comprised a linear increase from 15% B to 30% B in 2.7 min. […]

CNC(=O)c1ccccc1Sc1ccc2c(/C=C/c3ccccn3)n[nH]c2c1 [Axitinib, axitinib]
Absolute tumor volume of left flank tumors, mean (MC-38 tumor cells; day 0 post-treatment): 112.18 mm^3 | Absolute tumor volume of right flank tumors, mean (MC-38 tumor cells; day 0 post-treatment): 104.22 mm^3 | Absolute tumor volume of left flank tumors, mean (MC-38 tumor cells; day 3 post-treatment): 321.44 mm^3 | Absolute tumor volume of right flank tumors, mean (MC-38 tumor cells; day 3 post-treatment): 304.55 mm^3 | Absolute tumor volume of left flank tumors, mean (MC-38 tumor cells; day 5 post-treatment): 432.85 mm^3 | Absolute tumor volume of right flank tumors, mean (MC-38 tumor cells; day 5 post-treatment): 419.99 mm^3 | Absolute tumor volume of left flank tumors, mean (MC-38 tumor cells; day 7 post-treatment): 601.11 mm^3 | Absolute tumor volume of right flank tumors, mean (MC-38 tumor cells; day 7 post-treatment): 543.06 mm^3 | Absolute tumor volume of left flank tumors, mean (MC-38 tumor cells; day 10 post-treatment): 741.81† mm^3 | Absolute tumor volume of right flank tumors, mean (MC-38 tumor cells; day 10 post-treatment): 763.99 mm^3 | Absolute tumor volume of left flank tumors, mean (MC-38 tumor cells; day 12 post-treatment): 967.56†, †† mm^3 | Absolute tumor volume of right flank tumors, mean (MC-38 tumor cells; day 12 post-treatment): 994.16† mm^3 | Absolute tumor volume, mean (MC-38/C11G tumor cells; day 0 post-treatment): 93.862 mm^3 | Absolute tumor volume, mean (MC-38/C11G tumor cells; day 4 post-treatment): 243.647 mm^3 | Absolute tumor volume, mean (MC-38/C11G tumor cells; day 7 post-treatment): 418.787 mm^3 | Absolute tumor volume, mean (MC-38/C11G tumor cells; day 11 post-treatment): 710.390 mm^3 | Absolute tumor volume, mean (MC-38/C11G tumor cells; day 14 post-treatment): 977.619* mm^3 | concentration at 0.5 h ([1]; 0.5 h): 101 ng/mL | concentration at 1 h ([1]; 1 h): 76.8 ng/mL | concentration at 12 h ([1]; 12 h): 0.797 ng/mL
